The target of the experiment is Poly [ADP-ribose] polymerase 1 (Homo sapiens, UniProt P09874). The experiment can be described thus: Enzyme Assay. The method, then:
Inhibition of PARP-1 enzymatic activities was measured using an HT Universal Colorimetric PARP Assay Kit (Trevigen, catalogue #4677-096-K) following the standard procedures. Serial dilutions of PARP compounds were added to appropriate wells. The compound was incubated with PARP enzyme at RT for 10 min, and the reaction was initiated by addition of the PARP substrate cocktail, Each concentration of compound was tested in triplicate wells. After 15 min reaction, the reaction was stopped, and the Strep-HRP was added into each well and incubated for 1 h at RT. After addition of TACS-Sapphire colorimetric substrate and incubated in dark for 15 min, the OD450 was read out with an EnVision instrument. IC50 values (the concentration at which 50% of the enzyme activity is inhibited) were calculated, which are determined over a range of different concentrations, normally from 10 uM to 0.1 nM.

SMILES strings stand for the structures.

Sequence of Poly [ADP-ribose] polymerase 1 (P09874 whole entry): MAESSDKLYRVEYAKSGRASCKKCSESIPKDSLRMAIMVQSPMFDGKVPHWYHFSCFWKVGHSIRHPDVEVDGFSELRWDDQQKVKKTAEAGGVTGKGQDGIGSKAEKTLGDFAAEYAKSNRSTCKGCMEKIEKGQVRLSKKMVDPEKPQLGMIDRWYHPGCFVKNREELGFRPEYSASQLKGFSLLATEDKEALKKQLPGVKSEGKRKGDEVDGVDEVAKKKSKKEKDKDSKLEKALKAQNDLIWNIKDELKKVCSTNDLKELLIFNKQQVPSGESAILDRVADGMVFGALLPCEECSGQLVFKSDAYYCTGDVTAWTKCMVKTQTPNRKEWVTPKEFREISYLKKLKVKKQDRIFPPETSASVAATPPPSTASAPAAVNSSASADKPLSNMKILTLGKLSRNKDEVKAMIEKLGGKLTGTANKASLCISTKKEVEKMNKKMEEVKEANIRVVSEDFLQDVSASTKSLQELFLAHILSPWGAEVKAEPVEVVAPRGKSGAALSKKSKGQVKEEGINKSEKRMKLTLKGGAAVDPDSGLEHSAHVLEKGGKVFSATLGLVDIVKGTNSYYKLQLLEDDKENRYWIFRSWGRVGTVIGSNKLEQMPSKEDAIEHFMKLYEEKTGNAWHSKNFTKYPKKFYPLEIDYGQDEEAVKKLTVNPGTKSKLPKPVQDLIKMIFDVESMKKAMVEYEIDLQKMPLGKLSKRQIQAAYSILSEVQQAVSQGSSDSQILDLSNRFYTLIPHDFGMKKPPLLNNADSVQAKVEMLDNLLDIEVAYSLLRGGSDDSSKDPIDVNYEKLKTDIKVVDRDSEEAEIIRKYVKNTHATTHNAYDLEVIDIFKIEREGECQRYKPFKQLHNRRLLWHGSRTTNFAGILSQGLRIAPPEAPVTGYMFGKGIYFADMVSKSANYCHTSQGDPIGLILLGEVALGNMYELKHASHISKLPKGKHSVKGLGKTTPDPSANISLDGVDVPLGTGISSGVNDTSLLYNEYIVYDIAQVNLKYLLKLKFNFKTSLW

With `CC(C)(C)C(=O)N1CCP(=O)(c2cc(Cc3n[nH]c(=O)c4ccccc34)ccc2F)CC1` [US11248013, Example 10], the IC50 result was “in the range around 0.55 µM”.
